# In patent US20170056351A1, “COMPOSITION FOR INDUCING TUMOR IMMUNITY” (UNIVERSITY OF OCCUPATIONAL AND ENVIRONMENTAL HEALTH, JAPAN, priority 2014, published 2017):
# What was measured:
# [1] = system: 9L cells; assay: Intracellular localization of ROS 12 hours after ionizing radiation (DCFD, confocal laser scanning microscope), 9L; assay type: cell-based, rat; details: pre-treatment with 1 mM 5-ALA 4 hours before 10 Gy, 12 hours after irradiation, vs no 5-ALA
# Description: (§1) Intracellular ROS production was detected by our method using DCFD and a confocal laser scanning microscope (LMS5 Pascal; Carl Zeiss, Jena, Germany) (Yamamoto J, Ogura S, Tanaka T, et al: Radiosensitizing effect of 5-aminolevulinic acid-induced protoporphyrin IX in glioma cells in vitro. Oncol Rep 27: 1748-1752, 2012.). Briefly, the cells were seeded in a fresh medium containing 1 mM 5-ALA in a 35-mm glass-bottom culture dish (Asahi Techno Glass, Tokyo, Japan), and were then incubated at 37° C. for 4 hours in a dark room. Thereafter, the cells were washed with PBS, and were then exposed to an ionizing radiation of 10 Gy. Twelve hours after the ionizing irradiation, the cells were washed with PBS twice, and were then incubated together with 10 μM DCFD for 15 minutes. Thereafter, the cells were washed with PBS twice, and immediately after the washing, the resulting cells were observed. DCFD fluorescence (excitation: 488 nm; radiation: 505-530 nm band-pass filter) was imaged on a confocal laser scanning microscope. All procedures were carried out in a dark room.
# [2] = system: U251 cells; assay: Intracellular localization of ROS 12 hours after ionizing radiation (DCFD, confocal laser scanning microscope), U251; assay type: cell-based, human; details: pre-treatment with 1 mM 5-ALA 4 hours before 10 Gy, 12 hours after irradiation, vs no 5-ALA
# Description: as §1
# [3] = system: C6 cells; assay: Intracellular level of 5-ALA-induced PpIX by flow cytometric analysis, C6; assay type: cell-based, rat; details: 1 mM 5-ALA for 4 hours, relative to 5-ALA-not-treated cells, average±SE
# Description: Two types of rat glioma cell lines (9L and C6) and human glioma cell lines (U251 and T98G) were used. Before use, 9L and T98G were cultured in RPMI-1640 at 37° C. for several days, whereas C6 and U251 were cultured in 10% FBS-added Dulbecco's modified Eagle's medium (DMEM) at 37° C. for several days. These cell lines were maintained at 37° C. in 5% CO2 in a humidified incubator. The cells were subcultured at an exponential growth phase thereof, using 0.05% trypsin solution containing 0.5 mM ethylenediamine tetraacetate. 70% confluent cells were used in the subsequent experiments. […]
# The cells were seeded on a 100-mm culture dish, and were then cultured. […] Immediately after the recovery, the cells were re-suspended in cold PBS/FBS, and were then analyzed using a flow cytometer (EC800; Sony Biotechnology, Tokyo, Japan). Generally, 30,000 cells contained in each sample were evaluated. Using 488-nm argon ion laser, fluorescence was excited from intracellular PpIX, and the fluorescence was then detected using a 640/30 nm band-pass filter. […] The flow cytometric data were analyzed using FlowJo (Tree Star Inc., Ashland, Oreg., USA). The mean fluorescence intensity (MFI) of PpIX fluorescence in the 5-ALA-treated cells, with respect to that of 5-ALA-not-treated cells, was calculated for each cell line.
# [4] = system: Iba1-positive macrophages in subcutaneously transplanted 9L gliosarcoma; assay: Pathologic examination of subcutaneous tumor, Iba1 staining of macrophages and microdensitometry; assay type: in vivo, rat
# Description: After completion of the immobilization, all of the tumor samples were cut at the center of tumor in the longitudinal direction. The obtained fragments were each stained with hematoxylin and eosin (HE), and were also stained with Iba1 or CD68 for detection of macrophages. Briefly, the sample was bathed in water for pre-treatment (40 minutes, 95° C.), and the deparaffinized portion was then washed with KN Buffer (KN-09002; Pathology Institute Corp, Toyama, Japan). Subsequently, the fragment was incubated with goat polyclonal anti-Iba1 (1:3000, ab107159, Abcam) or anti-CD68 antibody (1:100, MCA-341R, AbD) for 30 minutes, and were further washed with KN Buffer. Subsequently, regarding Iba1, the fragment was incubated with Simple Stain™ MAX-PO (G) (H1301; Nichirei Bioscience Inc. Japan) for 30 minutes. Regarding CD68, the fragment was incubated with Envision+Dual Link HRP-label/polymer reagent (Dako: K4061) for 30 minutes. The resultant was finally washed with KN Buffer, and was then treated with diaminobenzidine (DAB) for 10 minutes for color development. […]
# Moreover, the procedures of the previous study (Prall F, Maletzki C, Linnebacher M: Microdensitometry of osteopontin as an immunohistochemical prognostic biomarker in colorectal carcinoma tissue microarrays: potential and limitations of the method in ‘biomarker pathology’. Histopathology 61: 823-32, 2012.) were partially modified, and using public domain software, Image J (Wayne Rasband, National Institute of Mental Health, Bethesda, Md.), microdensitometry was carried out regarding immunohistochemical quantitative evaluation of Iba1 on a digital photomicrograph. […] In order to quantify the color signals of immunohistochemical DAB of Iba1, the image data of all samples were transferred into Image J, and were then converted to 8-bit grayscale images. […] The present inventors have defined the mean gray value (MGV) of all of the tumor samples in a control group (n=5) as a representative value, and the relative intensities of MGVs in other groups to the aforementioned representative value were then calculated.
smiles,measurement,setting,value
"NCC(=O)CCC(=O)O [ALA, 5-aminolevulinic acid]",DCF fluorescence in the cytoplasm (confocal),[1],apparently increased
same,DCF fluorescence in the cytoplasm (confocal),[2],apparently increased
same,relative MFI of PpIX fluorescence,[3],20.2±0.56
same,"mean gray value (MGV) of Iba1, microdensitometry, versus other groups","[4]; ALA multiple-dose + ionizing radiation multiple-dose group, p<0.05 vs RT group, p<0.01 vs ALA group",significantly higher
same,Iba1-positive macrophages in subcutaneous tumor,"[4]; ALA multiple-dose administration group, 16th day after treatment",mainly gathered to the surface of the subcutaneous tumor
same,gathering of Iba1-positive macrophages to surface and inside of subcutaneous tumor,"[4]; ionizing radiation combined with ALA administration, 16th day after treatment",significantly observed
